Measured values reported in US20260250320A1, “LIPIDATED PEPTIDE INHIBITORS OF INTERLEUKIN-23 RECEPTOR” (Janssen Pharmaceutica NV, priority 2023, published 2026).
*1 amine or outer side, *2 acyl side, *3 side chain or, on linkers, in order; H or OH if unused. Where a SMILES comes first, the peptide text is derived from it. Bridges are numbered along the chain shown (N, C = ends). Roman numbers before positions name the chains, in order. Side-chain parts run from the residue outwards. [ ]: non-standard residue; d: D form. The star is where a group is joined. X19 = CC(C)(S[*:2])[C@H](N[*:3])C(=O)C[C@@H](Cc1ccc(OCCN)cc1)C(=O)[*:1]; X11 = CN(CC(N)=O)C(=O)[C@H](Cc1cccnc1)NC(O)[C@H](CC(N)=O)N*; Me3N+(CH2)2O(CH2)2O(CH2)2CO = C[N+](C)(C)CCOCCOCCC(=O)*; NH(CH2CH2O)2CH2CH2NMe3+ = C[N+](C)(C)CCOCCOCCN*; Trp(7-Me) = Cc1cccc2c(C[C@H](N)C(=O)O)c[nH]c12; C18 diacid = O=C(O)CCCCCCCCCCCCCCCCC(=O)*; C16 diacid = O=C(O)CCCCCCCCCCCCCCC(=O)*; γGlu = O=C(O)[C@H](CCC(=O)[*:2])N[*:1]; 2Nal = N[C@@H](Cc1ccc2ccccc2c1)C(=O)O; AEF = NCCOc1ccc(C[C@H](N)C(=O)O)cc1; X2 = C[N+](C)(C)C[C@@H](CC(=O)O)N*; 3Pal = N[C@@H](Cc1cccnc1)C(=O)O; Lys(Me) = CNCCCC[C@H](N)C(=O)O; Pen = CC(C)(S)[C@H](N)C(=O)O; Suc = O=C(CCC(=O)[*:2])[*:1]; Thp = NC1(C(=O)O)CCOCC1; X1 = C[N+](C)(C)CCCCC*; AEEA = NCCOCCOCC(=O)O; Sar = CNCC(=O)O

Key:
[1] = target: T1, IL-23R (Homo sapiens, UniProt Q5VWK5); test: IL23R Reporter Assay; assay type: cell-based; conditions: HEK293 cells containing IL-23R, IL-12Rβ1 and STAT-inducible firefly luciferase reporter; 10 ng/mL IL-23 (EC90); 5 h
T1 construct: HEK293 cells containing IL-23R, IL-12Rβ1 and a firefly luciferase reporter gene driven by a STAT-inducible promoter (Promega); host or cells: HEK293
T1 sequence (Q5VWK5 24-629): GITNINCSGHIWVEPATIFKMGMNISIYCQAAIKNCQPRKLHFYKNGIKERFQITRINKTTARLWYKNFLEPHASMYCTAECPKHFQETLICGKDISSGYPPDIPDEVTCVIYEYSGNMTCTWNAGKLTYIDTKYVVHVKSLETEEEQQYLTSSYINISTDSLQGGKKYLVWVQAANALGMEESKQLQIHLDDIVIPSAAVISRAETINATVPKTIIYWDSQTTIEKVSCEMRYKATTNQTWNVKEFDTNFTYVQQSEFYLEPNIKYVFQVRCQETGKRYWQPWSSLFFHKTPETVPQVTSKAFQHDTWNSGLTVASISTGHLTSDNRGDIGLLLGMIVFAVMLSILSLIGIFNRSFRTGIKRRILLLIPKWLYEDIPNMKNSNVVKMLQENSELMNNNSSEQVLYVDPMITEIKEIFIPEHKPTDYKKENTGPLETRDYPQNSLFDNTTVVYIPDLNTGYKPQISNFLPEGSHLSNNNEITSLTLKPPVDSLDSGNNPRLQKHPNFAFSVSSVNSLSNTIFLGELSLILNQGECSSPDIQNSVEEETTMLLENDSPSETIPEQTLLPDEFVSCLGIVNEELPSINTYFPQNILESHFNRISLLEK
Experimental: Compounds were serially diluted in 100% (v/v) DMSO) and plated using an Echo acoustic dispenser (Labcyte) into 1536-well non-treated black assay plates (Corning #9146). 3 μL of HEK293 cells containing IL-23R, IL-12Rβ1 and a firefly luciferase reporter gene driven by a STAT-inducible promoter (Promega) were added to the plates (4000 cells/well), followed by 3 μL of 10 ng/mL IL-23 (equivalent to EC90 concentration). After 5 h at 37° C., 5% CO2, 95% relative humidity, cells were placed at 20° C. and treated with BioGlo reagent (Promega) according to the Manufacturer's instructions. Luminescence was measured on a Pherastar FSX (BMG LabTech). Data were normalized to IL-23 treatment (0% inhibition) and 30 μM of control inhibitor (100% inhibition), and IC50 values were determined using a 4-parameter Hill equation.

[2] = system: IL-23-stimulated phosphorylated STAT3 in peripheral blood mononuclear cells (PBMCs); test: PBMC pSTAT3 Assay; assay type: cell-based; conditions: PBMCs from healthy donors; 30 min preincubation with peptide; IL-23 5 ng/mL for 30 min; phospho-STAT3 by MSD
Experimental: Cryopreserved peripheral blood mononuclear cells (PBMCs) from healthy donors were thawed and washed twice in ImmunoCult-XF T cell expansion medium (XF-TCEM) supplemented with CTL anti-aggregate wash. The cells were counted, resuspended at 2-6×10^5 cells per mL XF-TCEM supplemented with penicillin/streptomycin and 100 ng/mL […] (BioLegend, 579404), and cultured in tissue culture flasks coated with anti-CD3 (eBioscience, 16-0037-85 or BD Pharmingen, 555329) at 37° C. in 5% CO2. On day 4 of culture, PBMCs were collected, washed twice in RPMI-1640 supplemented with 0.1% BSA (RPMI-BSA), and incubated in RPMI-BSA in upright tissue culture flasks for ~4 hours at 37° C. in 5% CO2. Following this 'starvation,' a total of 6×10^4 cells in 30 μL RPMI-BSA was transferred into each well of a 384-well plate pre-spotted with peptide or DMSO. The cells were incubated for 30 minutes prior to the addition of […] at a final concentration of 5 ng/mL. The cells were stimulated with cytokine for 30 minutes at 37° C. in 5% CO2, transferred onto ice for 10 minutes, and lysed. Cell lysates were stored at -80° C. until phosphorylated STAT3 was measured using the phospho-STAT panel kit (Meso Scale Discovery, […]). Results are provided below. • A: IC50<0.5 nM; • B: 0.5 nM≤IC50<5 nM; • C: 5 nM≤IC50; • ND: Not determined

| SMILES | IC50 [1] [µM] | IC50 [2] [µM] |
| --- | --- | --- |
| CC(=O)NCCCC[C@@H]1NC(=O)[C@H](Cc2c[nH]c3c(C)cccc23)NC(=O)[C@H]([C@@H](C)O)NC(=O)[C@H](CC(N)=O)NC(=O)[C@@H](NC(=O)[C@@H](CCCCNC(=O)COCCOCCNC(=O)COCCOCCNC(=O)CC[C@H](NC(=O)CCCCCCCCCCCCCCCCC(=O)O)C(=O)O)NC(C)=O)C(C)(C)SSC(C)(C)[C@@H](C(=O)N[C@@H](Cc2ccc(OCCN)cc2)C(=O)N[C@@H](Cc2ccc3ccccc3c2)C(=O)NC2(C(=O)N[C@@H](CCCCNC(=O)CCC(=O)N[C@H](CC(=O)O)C[N+](C)(C)C)C(=O)N[C@@H](CC(N)=O)C(=O)N[C@@H](Cc3cccnc3)C(=O)N(C)CC(N)=O)CCOCC2)NC1=O [compound 33, MeCO-k(PEG2PEG2gEC18OH)-Pen(3)-N-T-7MeW-K(Ac)-Pen(3)-AEF-2Nal-THP-K(d)-N-3Pya-Sar-CONH2] (Ac-[dK]([AEEA-AEEA-γGlu-C18 diacid])[Pen]NT[Trp(7-Me)]K(Ac)[Pen][AEF][2Nal][Thp]K([Suc-X2])N[3Pal][Sar]-NH2; disulfide 2-7) | < 0.05 | < 0.0005 |
| CC(=O)NCCCC[C@@H]1NC(=O)[C@H](Cc2c[nH]c3c(C)cccc23)NC(=O)[C@H]([C@@H](C)O)NC(=O)[C@H](CC(N)=O)NC(=O)[C@@H](NC(C)=O)C(C)(C)SSC(C)(C)[C@@H](C(=O)N[C@@H](Cc2ccc(OCCN)cc2)C(=O)N[C@@H](Cc2ccc3ccccc3c2)C(=O)NC2(C(=O)N[C@@H](CCCCNC(C)=O)C(=O)N[C@@H](CC(N)=O)C(=O)N[C@@H](Cc3cccnc3)C(=O)N(C)CC(=O)N[C@@H](CCCCNC(=O)CCOCCOCCOCCOCCOCCOCCOCCOCCOCCOCCOCCOCCNC(=O)CC[C@H](NC(=O)CCCCCCCCCCCCCCCCCCC(=O)O)C(=O)O)C(N)=O)CCOCC2)NC1=O [compound 101, MeCO-Pen(3)-N-T-7MeW-K(Ac)-Pen(3)-AEF-2Nal-THP-K(Ac)-N-3Pya-Sar-K(PEG12gEC20OH)-CONH2] | < 0.05 | < 0.0005 |
| C=C(O)[C@H](CCC(=O)NCCOCCOCC(=O)NCCOCCOCC(=O)NCCCC[C@H](NC(=O)CN(C)C(=O)[C@H](Cc1cccnc1)NC(=O)[C@H](CC(N)=O)NC(=O)[C@H](CCCCNC(=O)CCC(=O)N[C@H](CC(=O)O)C[N+](C)(C)C)NC(=O)C1(NC(=O)[C@H](Cc2ccc3ccccc3c2)NC(=O)[C@H](Cc2ccc(OCCN)cc2)NC(=O)[C@H]2NC(=O)[C@H](CCCCNC(C)=O)NC(=O)[C@H](Cc3c[nH]c4c(C)cccc34)NC(=O)[C@H]([C@@H](C)O)NC(=O)[C@H](CC(N)=O)NC(=O)[C@@H](NC(C)=O)C(C)(C)SSC2(C)C)CCOCC1)C(N)=O)NC(=O)CCCCCCCCCCCCCCCCC(=O)O [compound 50, MeCO-Pen(3)-N-T-7MeW-K(Ac)-Pen(3)-AEF-2Nal-THP-K(d)-N-3Pya-Sar-K(PEG2PEG2gEC18OH)-CONH2] | 0.05 to 0.5 | < 0.0005 |
| CC(=O)NCCCC[C@@H]1NC(=O)[C@H](Cc2c[nH]c3c(C)cccc23)NC(=O)[C@H]([C@@H](C)O)NC(=O)[C@H](CCCCNC(=O)COCCOCCNC(=O)COCCOCCNC(=O)CC[C@H](NC(=O)CCCCCCCCCCCCCCCCC(=O)O)C(=O)O)NC(=O)[C@@H](NC(C)=O)C(C)(C)SSC(C)(C)[C@@H](C(=O)N[C@@H](Cc2ccc(OCCN)cc2)C(=O)N[C@@H](Cc2ccc3ccccc3c2)C(=O)NC2(C(=O)N[C@@H](CCCCNC(=O)CCC(=O)N[C@H](CC(=O)O)C[N+](C)(C)C)C(=O)N[C@@H](CC(N)=O)C(=O)N[C@@H](Cc3cccnc3)C(=O)N(C)CC(N)=O)CCOCC2)NC1=O [compound 14, MeCO-Pen(3)-K(PEG2PEG2gEC18OH)-T-7MeW-K(Ac)-Pen(3)-AEF-2Nal-THP-K(d)-N-3Pya-Sar-CONH2] (Ac-[Pen]K([AEEA-AEEA-γGlu-C18 diacid])T[Trp(7-Me)]K(Ac)[Pen][AEF][2Nal][Thp]K([Suc-X2])N[3Pal][Sar]-NH2; disulfide 1-6) |  | < 0.0005 |

Continued, in another order:

| IC50 [1] [µM] | SMILES | IC50 [2] [µM] |
| --- | --- | --- |
| ≥ 0.5 | CC(=O)NCCCC[C@@H]1NC(=O)[C@H](Cc2c[nH]c3c(C)cccc23)NC(=O)[C@H]([C@@H](C)O)NC(=O)[C@H](CC(N)=O)NC(=O)[C@@H](NC(C)=O)C(C)(C)SSC(C)(C)[C@@H](C(=O)C[C@@H](Cc2ccc(OCCN)cc2)C(=O)N[C@@H](Cc2ccc3ccccc3c2)C(=O)NC2(C(=O)N[C@@H](CCCCNC(=O)COCCOCCNC(=O)COCCOCCNC(=O)CC[C@H](NC(=O)CCCCCCCCCCCCCCCCC(=O)O)C(=O)O)C(=O)N[C@@H](CC(N)=O)C(=O)N[C@@H](Cc3cccnc3)C(=O)N(C)CC(=O)NCCOCCOCC[N+](C)(C)C)CCOCC2)NC1=O [compound 64, MeCO-Pen(3)-N-T-7MeW-K(Ac)-Pen(3)-AEF-2Nal-THP-K(PEG2PEG2gEC18OH)-N-3Pya-Sar-CONH(PEG3a)] (I: [2Nal][Thp]K([AEEA-AEEA-γGlu-C18 diacid])N[3Pal][Sar]-{NH(CH2CH2O)2CH2CH2NMe3+} / II: Ac-[Pen]NT[Trp(7-Me)]K(Ac); linker I:N-II:1-II:C via X19) | 0.0005 to 0.005 |
| < 0.05 | CC(=O)NCCCC[C@@H]1NC(=O)[C@H](Cc2c[nH]c3c(C)cccc23)NC(=O)[C@H]([C@@H](C)O)NC(=O)[C@H](CC(N)=O)NC(=O)[C@@H](NC(=O)[C@@H](CCCNC(=N)N)NC(=O)COCCOCCNC(=O)COCCOCCNC(=O)CC[C@H](NC(=O)CCCCCCCCCCCCCCCCC(=O)O)C(=O)O)C(C)(C)SSC(C)(C)[C@@H](C(=O)N[C@@H](Cc2ccc(OCCN)cc2)C(=O)N[C@@H](Cc2ccc3ccccc3c2)C(=O)NC2(C(=O)N[C@@H](CCCCN(C)C(=O)CCOCCOCC[N+](C)(C)C)C(=O)N[C@@H](CC(N)=O)C(O)N[C@@H](Cc3cccnc3)C(=O)N(C)CC(N)=O)CCOCC2)NC1=O (stereo partly drawn) [compound 82, HOC18gEPEG2PEG2CO-r-Pen(3)-N-T-7MeW-K(Ac)-Pen(3)-AEF-2Nal-THP-K(NMecPEG3a)-N-3Pya-Sar-CONH2] ({C18 diacid-γGlu-AEEA-AEEA}-[dR][Pen]NT[Trp(7-Me)]K(Ac)[Pen][AEF][2Nal][Thp][Lys(Me)](Me3N+(CH2)2O(CH2)2O(CH2)2CO)-X11; disulfide 2-7) | < 0.0005 |
| 0.05 to 0.5 | CC(=O)N[C@H](CCCNC(=N)N)C(=O)N[C@@H]1C(=O)N[C@@H](CC(N)=O)C(=O)N[C@@H]([C@@H](C)O)C(=O)N[C@@H](Cc2c[nH]c3c(C)cccc23)C(=O)N[C@@H](CCCCNC(=O)COCCOCCNC(=O)COCCOCCNC(=O)CC[C@H](NC(=O)CCCCCCCCCCCCCCC(=O)O)C(=O)O)C(=O)N[C@H](C(=O)N[C@@H](Cc2ccc(OCCCCC[N+](C)(C)C)cc2)C(=O)N[C@@H](Cc2ccc3ccccc3c2)C(=O)NC2(C(=O)N[C@@H](CCC(=O)O)C(=O)N[C@@H](CC(N)=O)C(=O)N[C@@H](Cc3cccnc3)C(=O)N(C)CC(=O)N(C)C)CCOCC2)C(C)(C)SSC1(C)C [compound 92, MeCO-r-Pen(3)-N-T-7MeW-K(PEG2PEG2gEC18OH)-Pen(3)-TMAPF-2Nal-THF-E-N-3Pya-Sar-CONH2] (Ac-[dR][Pen]NT[Trp(7-Me)]K([AEEA-AEEA-γGlu-C16 diacid])[Pen]Y(X1)[2Nal][Thp]EN[3Pal][Sar]-NMe2; disulfide 2-7) | < 0.0005 |
